Assay results as given in patent US20230124361A1, “SMALL MOLECULE STING ANTAGONISTS” (CURADEV PHARMA PVT. LTD., priority 2020, published 2023).

What follows are compounds tested against T1, STING (Homo sapiens, UniProt Q86WV6, G230A/H232R/R293Q/R71H) (assay: Reporter gene expression assay in THP1-Dual cells (IRF pathway Lucia luciferase, 2',3'-cGAMP stimulation)). Conditions: 10 min preincubation, 5 μM 2',3'-cGAMP, 20 hr, IRF reporter QUANTI-Luc, read-out: THP-1 (HAQ) Activity.
T1 construct: host or cells: THP1-Dual cells (human THP-1 monocyte line with Lucia/SEAP reporters)
T1 sequence (Q86WV6 whole entry R71H/G230A/H232R/R293Q): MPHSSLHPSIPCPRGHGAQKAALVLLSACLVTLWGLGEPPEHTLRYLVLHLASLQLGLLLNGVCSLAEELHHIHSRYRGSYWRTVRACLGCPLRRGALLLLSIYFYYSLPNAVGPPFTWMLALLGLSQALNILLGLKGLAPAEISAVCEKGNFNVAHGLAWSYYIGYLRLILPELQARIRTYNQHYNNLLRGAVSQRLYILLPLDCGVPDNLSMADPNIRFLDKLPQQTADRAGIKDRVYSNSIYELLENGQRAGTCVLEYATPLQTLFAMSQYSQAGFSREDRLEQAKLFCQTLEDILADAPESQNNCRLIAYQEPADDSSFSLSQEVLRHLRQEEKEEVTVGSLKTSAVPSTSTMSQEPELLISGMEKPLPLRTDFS
Type: cell-based
Procedure: Reporter Gene Expression Assay in THP-1 Cells
THP1-Dual™ cells (Invivogen) were derived from the human THP-1 monocyte cell line by stable integration of two inducible reporter constructs. As a result, THP1-Dual™ cells allow the simultaneous study of the IRF pathway, by assessing the activity of a secreted luciferase (Lucia) and the NF-κB pathway, by monitoring the activity of secreted SEAP. 5×10^4 THP1-Dual™ cells were seeded in 384-well plates in growth medium and preincubated with novel compounds for 10 minutes followed by stimulation with 5 μM 2′,3′-cGAMP. After 20 hr of stimulation the supernatant was removed and the IRF pathway reporter protein was readily measured in the cell culture supernatant using QUANTI-Luc™ (Invivogen), a luciferase detection reagent on a Spectramax i3X luminometer.
In the tables below, IC50 value ranges for exemplary compounds are given. The IC50 ranges are indicated as “A” for values less than or equal to 1 μM, “B” for values greater than 1 μM and less than or equal to 10 μM, and “C” for values greater than 10 μM.
`CS(=O)(=O)c1cc(Cl)ccc1CN1C(=O)COc2cc(NC(=O)Nc3ccc4cc[nH]c4c3)ccc21` [Example 122, 1-(4-(4-chloro-2-(methylsulfonyl)benzyl)-3-oxo-3,4-dihydro-2H-benzo[b][1,4]oxazin-7-yl)-3-(1H-indol-6-yl)urea] showed an IC50 of 1000 to 10000 nM.
`O=C(Nc1ccc2c(c1)OCC(=O)N2Cc1ccc[nH]c1=O)Nc1ccc2cc[nH]c2c1` [Example 158, 1-(1H-indol-6-yl)-3-(3-oxo-4-((2-oxo-1,2-dihydropyridin-3-yl)methyl)-3,4-dihydro-2H-benzo[b][1, 4]oxazin-7-yl)urea] showed an IC50 of over 10000 nM.
With `O=C(Nc1ccc2c(c1)OCC(=O)N2Cc1ccccc1-c1ccccc1)Nc1ccc2cc[nH]c2c1` [Example 101, 1-(4-([1,1′-biphenyl]-2-ylmethyl)-3-oxo-3,4-dihydro-2H-benzo[b][1,4]oxazin-7-yl)-3-(1H-indol-6-yl)urea] the IC50 was at most 1000 nM.
With `O=C(Nc1ccc2c(c1)OCC(=O)N2Cc1ccc(C(=O)O)cn1)Nc1ccc2cc[nH]c2c1` [Example 118, 6-((7-(3-(1H-indol-6-yl)ureido)-3-oxo-2,3-dihydro-4H-benzo[b][1,4]oxazin-4-yl)methyl)nicotinic acid] the IC50 was over 10000 nM.
Compound `CN1C(=O)CSc2ccc(NC(=O)Nc3ccc(F)cc3)cc21` [Example 193, l-(4-fluorophenyl)-3-(4-methyl-3-oxo-3,4-dihydro-2H-benzo[b][1, 4]thiazin-6-yl)urea] has an IC50 of over 10000 nM.
`O=C(Nc1ccc2c(c1)N(Cc1ccccc1)C(=O)CS2)Nc1ccc2[nH]ccc2c1` [Example 9, 1-(4-benzyl-3-oxo-3,4-dihydro-2H-benzo[b][1, 4]thiazin-6-yl)-3-(1H-indol-5-yl)urea] was tested, and the IC50 was 1000 to 10000 nM.
For `O=C1CSc2ccc(OCCc3ccc(F)cc3)cc2N1Cc1c(F)cccc1Cl` [Example 41, 4-(2-Chloro-6-fluorobenzyl)-6-(4-fluorophenethoxy)-2H-benzo[b][1,4]thiazin-3(4H)-one], the IC50 was 1000 to 10000 nM.
With `CN(C(=O)Nc1ccc2c(c1)N(Cc1ccccc1)C(=O)CS2)c1ccc2cc[nH]c2c1` [Example 59, 3-(4-benzyl-3-oxo-3,4-dihydro-2H-benzo[b][1, 4]thiazin-6-yl)-l-(1H-indol-6-yl)-1-methylurea] the IC50 was 1000 to 10000 nM.
In the case of `Nc1cccc(NC(=O)Nc2ccc3c(c2)N(Cc2ccccc2)C(=O)CS3)c1` [Example 25, 1-(3-aminophenyl)-3-(4-benzyl-3-oxo-3,4-dihydro-2H-benzo [b][1,4]thiazin-6-yl)urea], the IC50 is reported as 1000 to 10000 nM.
`O=C(Nc1ccc2c(c1)N(Cc1ccccc1)CC2)Nc1ccc2cc[nH]c2c1` [Example 74, 1-(1-Benzylindolin-6-yl)-3-(1H-indol-6-yl)urea] was tested, and the IC50 was 1000 to 10000 nM.
`O=C(Nc1ccc2c(c1)OCCN2Cc1ccccc1)Nc1ccc2cc[nH]c2c1` [Example 62, 1-(4-Benzyl-3,4-dihydro-2H-benzo[b][1,4]oxazin-7-yl)-3-(1H-indol-6-yl)urea] gave an IC50 of over 10000 nM.
Work on `O=C(Nc1ccc2c(c1)N(Cc1ccccc1)C(=O)CS2)Nc1c[nH]c2ccccc12` [Example 18, 1-(4-benzyl-3-oxo-3,4-dihydro-2H-benzo[b][1, 4]thiazin-6-yl)-3-(1H-indol-3-yl)urea] yielded an IC50 of at most 1000 nM.
Work on `O=C(Nc1ccc2cc[nH]c2c1)Nc1cc2c(cc1Br)N(Cc1ccccc1)C(=O)CO2` [Example 166, 1-(4-benzyl-6-bromo-3-oxo-3,4-dihydro-2H-benzo[b][1, 4]oxazin-7-yl)-3-(1H-indol-6-yl)urea] yielded an IC50 of 1000 to 10000 nM.
Compound `N#Cc1cccc(CN2C(=O)COc3cc(NC(=O)Nc4ccc5cc[nH]c5c4)ccc32)c1` [Example 116, l-(4-(3-cyanobenzyl)-3-oxo-3,4-dihydro-2H-benzo[b][1, 4]oxazin-7-yl)-3-(1H-indol-6-yl)urea] has an IC50 of 1000 to 10000 nM.
`Cc1cc(CN2C(=O)CSc3ccc(NC(=O)Nc4ccc5cc[nH]c5c4)cc32)ccn1` [Example 60] was tested, and the IC50 was 1000 to 10000 nM.
With `O=C(NCc1cc[nH]c1)Nc1ccc2c(c1)OCC(=O)N2Cc1ccccc1` [Example 132, 1-((1H-pyrrol-3-yl)methyl)-3-(4-benzyl-3-oxo-3,4-dihydro-2H-benzo[b][1, 4]oxazin-7-yl)urea] the IC50 was 1000 to 10000 nM.
For `O=C(Nc1ccc2c(c1)OCC(=O)N2Cc1ccc(C(F)(F)F)nc1)Nc1ccc2cc[nH]c2c1` [Example 104, 1-(1H-indol-6-yl)-3-(3-oxo-4-((6-(trifluoromethyl)pyridin-3-yl)methyl)-3,4-dihydro-2H-benzo[b][1,4]oxazin-7-yl)urea], the IC50 was at most 1000 nM.
Compound `O=C(Nc1ccc2c(c1)N(Cc1c(F)cccc1Cl)CCO2)Nc1ccc2cc[nH]c2c1` [Example 169, 1-(4-(2-chloro-6-fluorobenzyl)-3,4-dihydro-2H-benzo[b][1, 4]oxazin-6-yl)-3-(1H-indol-6-yl)urea] has an IC50 of at most 1000 nM.
`O=C(Nc1ccc2c(c1)OCC(=O)N2CCOc1ccccc1Cl)Nc1ccc2cc[nH]c2c1` [Example 100, 1-(4-(2-(2-chlorophenoxy)ethyl)-3-oxo-3,4-dihydro-2H-benzo[b][1,4]oxazin-7-yl)-3-(1H-indol-6-yl)urea] gave an IC50 of 1000 to 10000 nM.
With `CN1Cc2ccc(NC(=O)Nc3ccc(F)cc3)cc2N(Cc2ccccc2)C1=O` [Example 39, 1-(1-Benzyl-3-methyl-2-oxo-1,2,3,4-tetrahydroquinazolin-7-yl)-3-(4-fluorophenyl)urea] the IC50 was 1000 to 10000 nM.
`O=C(Nc1ccc2c(c1)OCC(=O)N2Cc1ccc(OC(F)F)cc1)Nc1ccc2cc[nH]c2c1` [Example 109, 1-(4-(4-(difluoromethoxy)benzyl)-3-oxo-3,4-dihydro-2H-benzo[b][1,4]oxazin-7-yl)-3-(1H-indol-6-yl)urea] gave an IC50 of at most 1000 nM.
Work on `CN1CCSc2ccc(NC(=O)Nc3ccc4cc[nH]c4c3)cc21` [Example 168, 1-(1H-indol-6-yl)-3-(4-methyl-3,4-dihydro-2H-benzo[b][1, 4]thiazin-6-yl)urea] yielded an IC50 of over 10000 nM.
Compound `O=C(Nc1ccc2c(c1)SCCN2Cc1ccccc1)Nc1ccc2cc[nH]c2c1` [Example 63, 1-(4-benzyl-3,4-dihydro-2H-benzo[b][1, 4]thiazin-7-yl)-3-(1H-indol-6-yl)urea] has an IC50 of over 10000 nM.
`O=C(Nc1ccc2c(c1)OCC(=O)N2c1ccccc1)Nc1ccc2cc[nH]c2c1` [Example 75, 1-(1H-Indol-6-yl)-3-(3-oxo-4-phenyl-3,4-dihydro-2H-benzo[b][1,4]oxazin-7-yl)urea] showed an IC50 of 1000 to 10000 nM.
`O=C(Nc1ccc2c(c1)N(Cc1ccccc1)CCS2)Nc1c[nH]c2ccccc12` [Example 64, 1-(4-benzyl-3,4-dihydro-2H-benzo[b][1, 4]thiazin-6-yl)-3-(1H-indol-3-yl)urea] gave an IC50 of 1000 to 10000 nM.
Compound `O=C(Nc1ccc2c(c1)N(Cc1ccccc1)C(CC(O)CO)CO2)Nc1ccc2cc[nH]c2c1` (centres unmarked) [Example 79, 1-(4-Benzyl-3-(2,3-dihydroxypropyl)-3,4-dihydro-2H-benzo[b][1,4]oxazin-6-yl)-3-(1H-indol-6-yl)urea] has an IC50 of 1000 to 10000 nM.
Work on `O=C(Nc1ccc2c(c1)OCC(=O)N2Cc1ccc2nsnc2c1)Nc1ccc2cc[nH]c2c1` [Example 119, 1-(4-(benzo[c][1,2,5]thiadiazol-5-ylmethyl)-3-oxo-3,4-dihydro-2H-benzo[b][1,4]oxazin-7-yl)-3-(1H-indol-6-yl)urea] yielded an IC50 of 1000 to 10000 nM.
Work on `COc1ccc(OC)c(CN2C(=O)COc3cc(NC(=O)Nc4ccc5cc[nH]c5c4)ccc32)c1` [Example 115, 1-(4-(2,5-dimethoxybenzyl)-3-oxo-3,4-dihydro-2H-benzo[b][1,4]oxazin-7-yl)-3-(1H-indol-6-yl)urea] yielded an IC50 of 1000 to 10000 nM.
For `O=C(Nc1ccc2c(c1)OCC(=O)N2Cc1cccc(F)c1F)Nc1ccc2cc[nH]c2c1` [Example 95, 1-(4-(2,3-difluorobenzyl)-3-oxo-3,4-dihydro-2H-benzo[b][1, 4]oxazin-7-yl)-3-(1H-indol-6-yl)urea], the IC50 was at most 1000 nM.
In the case of `O=C(Nc1ccc2c(c1)N(Cc1ccccc1)CC[S+]2[O-])Nc1ccc2cc[nH]c2c1` (centres unmarked) [Example 167, 1-(4-benzyl-1-oxido-3,4-dihydro-2H-benzo[b][1, 4]thiazin-6-yl)-3-(1H-indol-6-yl)urea], the IC50 is reported as over 10000 nM.
With `O=C(Nc1ccc2c(c1)OCC(=O)N2Cc1ccccc1C(F)(F)F)Nc1ccc2cc[nH]c2c1` [Example 113, 1-(1H-indol-6-yl)-3-(3-oxo-4-(2-(trifluoromethyl)benzyl)-3,4-dihydro-2H-benzo[b][1,4]oxazin-7-yl)urea] the IC50 was 1000 to 10000 nM.
Compound `O=C(Nc1ccc2c(c1)OCC(=O)N2Cc1ccccc1)NC1Cc2ccccc2C1` [Example 136, 1-(4-benzyl-3-oxo-3,4-dihydro-2H-benzo[b][1, 4]oxazin-7-yl)-3-(2,3-dihydro-1H-inden-2-yl)urea] has an IC50 of 1000 to 10000 nM.
`O=C(Nc1ccc2c(c1)OCC(=O)N2Cc1ccc2c(c1)OCO2)Nc1ccc2cc[nH]c2c1` [Example 114, 1-(4-(benzo[d][1,3]dioxol-5-ylmethyl)-3-oxo-3,4-dihydro-2H-benzo[b][1,4]oxazin-7-yl)-3-(1H-indol-6-yl)urea] was tested, and the IC50 was at most 1000 nM.
In the case of `O=C(Nc1ccc2c(c1)OCC(=O)N2Cc1ccccn1)Nc1ccc2cc[nH]c2c1` [Example 149, 1-(iH-indol-6-yl)-3-(3-oxo-4-(pyridin-2-ylmethyl)-3,4-dihydro-2H-benzo[b][1, 4]oxazin-7-yl)urea], the IC50 is reported as 1000 to 10000 nM.
`O=C(Nc1ccc2c(c1)OCC(=O)N2CC1COc2ccccc2O1)Nc1ccc2cc[nH]c2c1` (centres unmarked) [Example 97, 1-(4-((2,3-dihydrobenzo[b][1,4]dioxin-2-yl)methyl)-3-oxo-3,4-dihydro-2H-benzo[b][1,4]oxazin-7-yl)-3-(1H-indol-6-yl)urea] showed an IC50 of at most 1000 nM.
